How the values were obtained:
[1] = system: T1, PAL from Anabaena flos-aquae (A. flos-aquae PAL); assay: forward deamination assay, cinnamic acid absorbance at […] nm; type: biochemical, Dolichospermum flosaquae; details: Tris-HCl pH 8.9; standard assay at 37 °C
T1 construct: native enzyme purified from algal culture (acetone precipitation, Sephadex G-200, DEAE-cellulose); 64 kDa band on SDS-PAGE

[2] = system: T2, PAL from Spirulina platensis (S. platensis PAL); assay: as above; type: biochemical, Limnospira platensis; details: Tris-HCl pH 8.9; standard assay at 37 °C
T2 construct: native enzyme purified from algal culture (acetone precipitation, Sephadex G-200, DEAE-cellulose); 64 kDa band on SDS-PAGE

[3] = system: T1, PAL from Anabaena flos-aquae (A. flos-aquae PAL); assay: reverse hydroamination assay, L-phenylalanine formation at […] nm; type: biochemical, Dolichospermum flosaquae; details: co-substrate NH4OH (stock 5 M); Tris-HCl pH 8.9; standard assay at 37 °C
[4] = system: T2, PAL from Spirulina platensis (S. platensis PAL); assay: as above; type: biochemical, Limnospira platensis; details: co-substrate NH4OH (stock 5 M); Tris-HCl pH 8.9 (standard assay); 37 °C

SMILES | Km [1] | Km [2] | Km [3] | Km [4]
N[C@@H](Cc1ccccc1)C(=O)O [L-phenylalanine] | 1500 µM | 1640 µM |  | 
O=C(O)/C=C/c1ccccc1 [trans-cinnamic acid] |  |  | 300 µM | 610 µM

— article PMC9728195, “Purification and Characterization of Anabaena flos-aquae Phenylalanine Ammonia-Lyase as a Novel Approach for Myristicin Biotransformation” (Journal of Microbiology and Biotechnology, 2019)
